# What was measured:
# [1] = Viscosity of HA solution on storage at 25, 40 and 50° C. (cone-plate viscometer); type: physicochemical
# Protocol: Viscosity measurements are made of vials of sterile, injectable grade, high molecular weight 1% sodium hyaluronate solution (Hycoat® Sterile Wound Management Solution; Hyaluronate Sodium, Solution 20 mg/2 mL; avg. molecular weight 1.0-1.3 million Daltons; supplied by Hymed Group, Bethlehem, Pa.) containing Chlorophyllin Copper Complex Sodium at varying concentrations as summarized in the table below. Preferably, dissolved and atmospheric oxygen is purged from the HA solution by displacing the headspace in the vial with Nitrogen or Argon.
# Sodium copper chlorophyllin complex (disodium copper isochlorin e4 minimum content of 25% based on dry weight of complex; supplied by Frontier Scientific, Logan, Utah) is added to the 1% HA test solutions (i.e., 2 mL Hycoat® described above) as follows: 1 gram of CHLcu is added to 99 grams of distilled water, heated to 50° C., mixed for 30 minutes with a magnetic stirrer, and then cooled to room temperature. The specified concentration of CHLCu solution is drawn into a syringe through a 0.45u syringe filter and added to the sterile vial of 1% HA solution under a laminar flow hood. For example, in order to prepare a 1% HA solution containing 100 ppm of CHLcu in the final HA solution 20.5 microliters (0.0205 mL) of the 1% CHLCu solution is injected into the vial of 2 mL of sterile HA solution.
# Each of the 2 mL test samples (with and without CHLcu) are stored at 25° C., 40° C., and 50° C. for up to eight weeks. Viscosity measurements are taken at baseline and at 1, 2, 4, 6 and 8 weeks after storage at the three temperatures.
# 0.5 mL of the test sample is then withdrawn from each vial, causing a temporary shear in the sample viscosity.
# All samples (1% HA+CHLCu) are equilibrated prior to viscosity measurement. […]
# Each withdrawn sample is allowed to further equilibrate for five additional minutes before taking viscosity measurements. Viscosity is preferably measured at 2 rpm with a cone-plate viscometer (e.g., Brookfield LVD-II Pro Cone/Plate viscometer; CPE-51 spindle from Brookfield Engineering Laboratories, Inc. Middleboro, Mass.).
# [2] = test system: Vitrase injectable sterile hyaluronidase; test: Anti-hyaluronidase activity: viscosity of 1% HA before and after addition of Vitrase; type: biochemical, Ovine
# Protocol: In order to assess the anti-hyaluronidase activity of the CHLcu stabilizing agent, 40 units (0.2 mL) of Vitrase® injectable sterile hyaluronidase solution (Ovine, 200 USP Units/mL) is added to each of four 1% HA samples that have been stored at 25° C. for six weeks with (a) no CHLCu; (b) 50 ppm CHLCu; (c) 100 ppm CHLCu; and (d) 250 ppm CHLCu). Anti-hyaluronidase activity is measured by comparing the viscosity of the test samples before and after addition of Vitrase®.
# A product containing 1% HA (Hycoat® Sterile Wound Management Solution; Hyaluronate Sodium, Solution 20 mg/2 mL; average molecular weight 1.0-1.3 million Daltons) and 100 mcg/mL CHLCu was combined with 40 units (0.2 mL) of Vitrase® injectable sterile hyaluronidase solution (Ovine, 200 USP Units/mL) and stored at 25° C. for 30 minutes. The viscosity of the combined solution of sodium HA, CHLCu, and Vitrase® composition was seen to drop from 450.6 cps to 161.8 cps, or 35.9% of initial viscosity.
# By way of comparison, the viscosity of the same 1% HA solution without CHLCu was measured, and then exposed to 40 units of the same Vitrase. After 30 minutes of Vitrase® contact, the 1% HA solution underwent a viscosity change from 516.2 cps to 43.69 cps or only 8.5% of the initial HA viscosity.
# [3] = test system: adult human dermal fibroblasts; test: Cell proliferation, sulforhodamine B staining; type: cell-based; details: 4 days, vs water
# Protocol: Adult human dermal fibroblasts (Cell Applications, San Diego, Calif.) were plated in DMEM without phenyl red supplemented with 5% FBS and 1% penicillin/streptomycin (PS) at a concentration of 8,000 cells/well. Test materials, which were stored at 4° C. until dissolved at 20 mg/ml in ddH2O, were added the next day on attached exponentially-growing cells. Negative and positive controls were, respectively, type I sterile water and L-Ascorbic acid 2-phosphate sesquimagnesium salt (“MAP”) (Sigma-Aldrich).
# (§1) Cells proliferation was quantified by staining cytoskeletons with sulforhodamine B according to the colorimetric method of Voigt, “Sulforhodamine B assay and chemosensitivity,” Methods Mol. Med. Vol. 110, pp. 39-48 (2005). Statistical significance was assessed with two-tailed paired Student test. Deviations of >15% as compared to the negative water control with p values below 0.05 were considered statistically significant.
# [4] = test system: COL5A1; test: Collagen gene expression in adult human dermal fibroblasts, PCR array; type: cell-based; details: HDF, 24 hours
# Protocol: (§2) Using adult human dermal fibroblasts (Cell Applications, San Diego, Calif.) (“HDF”), the effectiveness of three chlorophyllin materials—Isochlorin E4 Disodium (“E4”); Sodium Copper Chlorophyllin C3999 (“C3999”); and Chlorophyllin Sodium Copper Salt (“CSCS”)—are assessed for the ability to positively effect the differential expression of at least one of the following three collagen genes—COL15A1; COL1A1; and COL5A1. After cell viability tests, the effect of 2 μg/ml E4, 10 μg/ml CSCS, and 10 μg/ml C3999 on adult human dermal fibroblasts (100,000 cells/well) on gene expression were evaluated using PCR arrays.
# (§3) HDF cells were incubated for 24 hours in a 12-well plate at a concentration of 100,000 cells/well in Dulbecco's Modified Eagle Medium (DMEM) with 5% Fetal Bovine Serum (FBS). The three test materials were added to the wells, incubated for 24 hours. […] RNA was extracted and purified with NucleoSpin RNA II kit from Machery-Nagel (Bethlehem, Pa.). Purified total RNA was analyzed at 230 nm, 260 nm and 280 nm with Agilent HP-8452A diode array spectrophotometer. The concentration of RNA was equalized across the samples and the expression of genes of interest was measured by real-time quantitative PCR with BioRad iCycler iQ Detection System using Human Extracellular Matrix & Adhesion Molecules PCR array PAHS-13ZA from Qiagen (formerly SA Biosciences, Frederick, Md.). Reactions were performed with 1st strand synthesis kit, SYBR Green master mix and PCR setup parameters from Qiagen. Results were normalized to housekeeping genes with the RT2 Profiler PCR Array Data Analysis version 3.5 software
# (§4) Genes were considered differentially expressed if the level of expression was detected in less than 30 cycles, and modulation was 1.5 fold or higher.
# [5] = test system: COL1A1; test: as above; type: cell-based; details: HDF, 24 hours
# Protocol: as §2, §3, §4
# [6] = test system: COL15A1; test: as above; type: cell-based; details: HDF, 24 hours
# Protocol: as §2, §3, §4
# [7] = test system: non-soluble type I collagen; test: Non-soluble type I collagen production by HDF, direct ELISA; type: cell-based, human; details: for % CTRL (COL-I): 4 days, vs water; for % CTRL (Cell # Standardized): non-soluble collagen I standardized to cell numbers; for Cell # Standardized: repeat testing, type I collagen deposition, H2O = 100
# Protocol: Adult human dermal fibroblasts (Cell Applications, San Diego, Calif.) were plated in DMEM without phenyl red supplemented with 5% FBS and 1% penicillin/streptomycin (PS) at a concentration of 8,000 cells/well. Test materials, which were stored at 4° C. until dissolved at 20 mg/ml in ddH2O, were added the next day on attached exponentially-growing cells.
# Cells were then fixed with 2.5% trichloroacetic acid (TCA) at 4° C., dried overnight, and tested for non-soluble type I collagen, using direct ELISA.
# as §1
# [8] = test system: HDF; test: Long term HDF viability, MTT assay; type: cell-based, human; details: long-term incubation, 1 μg/mL
# Protocol: The effect of long-term incubation of HDF with E4 is assessed by MTT, a colorimetric assay for assessing cell metabolic activity.
# [9] = 1% HA (Hycoat) + 100 mcg/mL CHLCu, 40 units Vitrase, 25° C., 30 minutes
Substance,% CTRL (Cell #) ([3]; 5 μg/mL) [% CTRL],% CTRL (Cell #) ([3]; 10 μg/mL) [% CTRL],% CTRL (Cell #) ([3]; 20 μg/mL) [% CTRL],COL5A1 expression (modulation) ([4]; 10 μg/ml) [fold],COL1A1 expression (modulation) ([5]; 10 μg/ml) [fold],COL15A1 expression (modulation) ([6]; 10 μg/ml) [fold],% CTRL (COL-I) ([7]; 5 μg/mL) [% CTRL],% CTRL (COL-I) ([7]; 10 μg/mL) [% CTRL],% CTRL (COL-I) ([7]; 20 μg/mL) [% CTRL],% CTRL (Cell # Standardized) ([7]; 5 μg/mL) [% CTRL],% CTRL (Cell # Standardized) ([7]; 10 μg/mL) [% CTRL],% CTRL (Cell # Standardized) ([7]; 20 μg/mL) [% CTRL],Cell # Standardized ([7]; 0.25 ug/ml),Cell # Standardized ([7]; 1 μg/ml),Cell # Standardized ([7]; 2 μg/ml),Cell # Standardized ([7]; 5 μg/ml),further results
Chlorophyllin Copper Complex Sodium [CHLcu],,,,,,,,,,,,,,,,,"viscosity change compared with samples not containing CHLCu ([1]; 1% HA, 25, 40, 50° C., up to eight weeks): less of a viscosity change; viscosity deviation from baseline after 8 weeks of storage ([1]; HA product stored with CHLcu about 50 to about 250 ppm, 40° C.): ≤ 5%; viscosity increase ([1]; HA product stored with CHLcu about 50 to about 250 ppm, 40° C., about 8 weeks): up to 25%; viscosity before Vitrase ([2]; 1% HA (Hycoat) + 100 mcg/mL CHLCu): 450.6 cps; % of initial viscosity after Vitrase [2, 9]: 35.9%; viscosity after Vitrase [2, 9]: 161.8 cps; loss of viscosity when challenged with hyaluronidase ([2]; product containing HA (or modified HA) and CHLCu): reduced loss of viscosity"
Chlorophyllin Sodium Copper Salt [CSCS],95,87,88,1.7,1.5,1.2,95,85,84,99,96,94,97,96,114,110,
Isochlorin E4 Disodium,81,80,,,,,94,90,,115,111,,88,89,113,101,% CTRL (Cell #) ([3]; 2 μg/mL): 89 % CTRL; HDF cell metabolic activity (MTT) [8]: unaffected; COL5A1 expression (modulation) ([4]; 2 μg/ml): 1.5 fold; COL1A1 expression (modulation) ([5]; 2 μg/ml): 1.2 fold; COL15A1 expression (modulation) ([6]; 2 μg/ml): 1.2 fold; % CTRL (COL-I) ([7]; 2 μg/mL): 120 % CTRL; % CTRL (Cell # Standardized) ([7]; 2 μg/mL): 133 % CTRL
"L-Ascorbic acid 2-phosphate sesquimagnesium salt [MAP, reference compound]",,,,,,,,,,,,,,,,,% CTRL (Cell #) ([3]; 50 μg/mL): 111 % CTRL; % CTRL (Cell #) ([3]; 100 μg/mL): 100 % CTRL
Sodium Copper Chlorophyllin C3999,95,92,83,1.3,1.2,1.5,97,110,121,101,118,145,,,,,

# From patent publication US20180228703A1, “Improved Hyaluronan and Modified-Hyaluronan in Biomedical Applications” (CHL Industries, LLC, priority 2015, published 2018)
